Activity calls are given as the source filed them. The rule behind the calls is not given here.

Holding throughout (format): cell-based
For test [1], the system named is Cystic fibrosis transmembrane conductance regulator (Homo sapiens), P13569 [F508del]. As to the kind of experiment: Corrector activity at CFTR F508del mutant (unknown origin) expressed in human CFBE41o- cells co-expressing halide-sensitive yellow fluorescent protein assessed as increase in iodide influx at 1 to 10 uM preincubated with compound for 24 hrs in presence of VX-809 followed by compound washout and measured after 30 mins of stimulation with forskolin/genistein by fluorescence microplate reader. Conditions: filed as activator, dose 1-10 µM.
Sequence of Cystic fibrosis transmembrane conductance regulator (Homo sapiens), P13569 [F508del] (P13569 as listed by the source): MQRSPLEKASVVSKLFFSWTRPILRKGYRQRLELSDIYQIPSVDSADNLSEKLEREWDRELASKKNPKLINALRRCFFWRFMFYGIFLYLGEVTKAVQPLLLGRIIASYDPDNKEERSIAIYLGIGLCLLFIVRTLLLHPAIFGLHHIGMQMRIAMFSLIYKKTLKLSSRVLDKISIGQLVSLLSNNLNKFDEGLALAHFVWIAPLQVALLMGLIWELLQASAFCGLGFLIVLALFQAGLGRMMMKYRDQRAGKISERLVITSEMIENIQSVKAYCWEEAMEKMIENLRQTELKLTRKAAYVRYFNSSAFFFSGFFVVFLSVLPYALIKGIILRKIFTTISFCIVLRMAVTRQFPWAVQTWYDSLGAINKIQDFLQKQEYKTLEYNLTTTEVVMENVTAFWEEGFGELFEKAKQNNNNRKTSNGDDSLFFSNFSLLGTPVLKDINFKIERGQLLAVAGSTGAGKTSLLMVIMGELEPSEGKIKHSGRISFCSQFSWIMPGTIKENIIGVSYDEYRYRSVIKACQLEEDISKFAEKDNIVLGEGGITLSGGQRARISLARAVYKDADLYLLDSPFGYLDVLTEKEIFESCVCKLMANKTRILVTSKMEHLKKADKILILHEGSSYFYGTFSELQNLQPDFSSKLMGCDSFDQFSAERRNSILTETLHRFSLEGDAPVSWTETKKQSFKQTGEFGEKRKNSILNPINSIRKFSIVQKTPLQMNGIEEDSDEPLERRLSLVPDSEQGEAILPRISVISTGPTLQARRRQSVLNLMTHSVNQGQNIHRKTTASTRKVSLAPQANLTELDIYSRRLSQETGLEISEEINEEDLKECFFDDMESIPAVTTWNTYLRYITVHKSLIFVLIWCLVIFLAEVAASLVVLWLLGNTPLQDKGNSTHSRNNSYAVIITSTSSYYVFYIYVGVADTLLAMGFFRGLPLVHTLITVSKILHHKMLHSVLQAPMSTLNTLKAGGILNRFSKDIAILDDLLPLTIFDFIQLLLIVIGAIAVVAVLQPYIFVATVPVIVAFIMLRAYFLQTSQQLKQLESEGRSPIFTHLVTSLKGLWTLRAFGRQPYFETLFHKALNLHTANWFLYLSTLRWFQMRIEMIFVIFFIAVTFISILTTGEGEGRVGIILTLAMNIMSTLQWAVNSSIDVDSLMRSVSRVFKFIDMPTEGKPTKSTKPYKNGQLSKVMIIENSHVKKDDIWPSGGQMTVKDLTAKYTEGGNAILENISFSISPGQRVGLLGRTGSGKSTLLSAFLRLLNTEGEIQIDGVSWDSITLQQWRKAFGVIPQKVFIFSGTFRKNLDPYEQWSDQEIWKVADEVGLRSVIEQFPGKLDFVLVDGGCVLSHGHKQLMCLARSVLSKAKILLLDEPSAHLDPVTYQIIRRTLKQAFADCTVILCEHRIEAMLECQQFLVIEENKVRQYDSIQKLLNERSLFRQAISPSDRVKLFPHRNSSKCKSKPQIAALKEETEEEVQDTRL

The test system is the same in test [2]. As to the kind of experiment: Corrector activity at CFTR F508del mutant (unknown origin) expressed in human CFBE41o- cells co-expressing halide-sensitive yellow fluorescent protein assessed as increase in iodide influx at 1 to 10 uM preincubated with compound for 24 hrs followed by compound washout and measured after 30 mins of stimulation with forskolin/genistein by fluorescence microplate reader. Conditions: dose 1-10 µM.

In test [3] the target is T1, Cystic fibrosis transmembrane conductance regulator (Homo sapiens, UniProt P13569, F508DEL). As to the kind of experiment: Corrector activity at CFTR F508del mutant (unknown origin) expressed in human CFBE41o- cells co-expressing halide-sensitive yellow fluorescent protein assessed as increase in iodide influx preincubated with compound for 24 hrs followed by compound washout and measured after 30 mins of stimulation with forskolin/genistein by fluorescence microplate reader.
T1 sequence (P13569 as listed by the source): as above

The target of test [4] is T1, Cystic fibrosis transmembrane conductance regulator. As to the kind of experiment: Corrector activity at CFTR F508del mutant (unknown origin) expressed in human CFBE41o- cells co-expressing halide-sensitive yellow fluorescent protein assessed as increase in iodide influx preincubated with compound for 24 hrs in presence of VX-809 followed by compound washout and measured after 30 mins of stimulation with forskolin/genistein by fluorescence microplate reader.

Test [5] has as its system Cystic fibrosis transmembrane conductance regulator (Homo sapiens), P13569 [F508del]. As to the kind of experiment: Corrector activity at CFTR F508del mutant (unknown origin) expressed in human CFBE41o- cells co-expressing halide-sensitive yellow fluorescent protein assessed as increase in iodide influx by measuring fold change preincubated with compound for 24 hrs in presence of VX-809 followed by compound washout and measured after 30 mins of stimulation with forskolin/genistein by fluorescence microplate reader relative to VX-809 alone. Particulars: filed as activator.

Test [6] shares this test system. As to the kind of experiment: Corrector activity at CFTR F508del mutant (unknown origin) expressed in human CFBE41o- cells co-expressing halide-sensitive yellow fluorescent protein assessed as increase in iodide influx at 10 uM preincubated with compound for 24 hrs in presence of corr-4a followed by compound washout and measured after 30 mins of stimulation with forskolin/genistein by fluorescence microplate reader. Particulars: filed as activator.

Test [7] shares this test system. As to the kind of experiment: Corrector activity at CFTR F508del mutant (unknown origin) expressed in human CFBE41o- cells co-expressing halide-sensitive yellow fluorescent protein assessed as increase in iodide influx at 10 uM preincubated with compound for 24 hrs in presence of VX-445 followed by compound washout and measured after 30 mins of stimulation with forskolin/genistein by fluorescence microplate reader.

For the molecule `CCOC(=O)c1c(Br)c2c(n1Cc1ccc(Br)cc1)-c1nc(NS(=O)(=O)c3ccccc3)ncc1CC2`, in test [1], the outcome was Active. Moreover, the outcome in test [2] was inactive.

For `CCOC(=O)c1c(Br)c2c(n1Cc1ccc(F)c(Br)c1)-c1nc(NS(=O)(=O)c3ccccc3)ncc1CC2`, the result in test [1] and in test [2] (filed as activator) was Active.

`CCOC(=O)c1cc2c(n1Cc1ccc(C)cc1)-c1nc(NS(=O)(=O)c3ccccc3)ncc1CC2`: the result in test [2] was inactive.

As to `CCOC(=O)c1c(Br)c2c(n1Cc1ccc(F)cc1)-c1nc(NS(=O)(=O)c3ccccc3)ncc1CC2`, the outcome in test [2] was inactive.

On to `CCOC(=O)c1cc2c(n1Cc1ccc(Br)cc1)-c1nc(NS(=O)(=O)c3ccccc3)ncc1CC2`, for which the result in test [2] was inactive.

As a reminder, the EC50 is the concentration that produces a half-maximal response. As for `CCOC(=O)c1c(Br)c2c(n1Cc1cccc(Br)c1)-c1nc(NS(=O)(=O)c3ccccc3)ncc1CC2`, the result in test [1], in test [2] (filed as activator) and in test [6] was Active. For the same molecule, the results for the EC50 in test [3] and in test [4] were 3080 nM and 2120 nM, respectively. Besides, the fold change (FC) in test [5] came out at 2.3. Also, the result in test [7] was inactive.

As for `CCOC(=O)c1c(Br)c2c(n1Cc1cccc(C)c1)-c1nc(NS(=O)(=O)c3ccccc3)ncc1CC2`, the outcome in test [1] was Active.

Turning to `CCOC(=O)c1cc2c(n1CC1CC1)-c1nc(NS(=O)(=O)c3ccccc3)ncc1CC2`, in test [2], the result was inactive.

Take `CCOC(=O)c1cc2c(n1Cc1cccc(C)c1)-c1nc(NS(=O)(=O)c3ccccc3)ncc1CC2`: in test [1], the result was Active.

Consider `CCOC(=O)c1c(Br)c2c(n1Cc1ccc(C)cc1)-c1nc(NS(=O)(=O)c3ccccc3)ncc1CC2`, for which, in test [2], the outcome was inactive.

As to `CCOC(=O)c1cc2c(n1Cc1ccc(F)c(Br)c1)-c1nc(NS(=O)(=O)c3ccccc3)ncc1CC2`, the outcome in test [1] and in test [2] (filed as activator) was Active.

Take `CCOC(=O)c1cc2c(n1Cc1cccc(Br)c1)-c1nc(NS(=O)(=O)c3ccccc3)ncc1CC2`: the result in test [2] was inactive.

Regarding `CCOC(=O)c1c(Cl)c2c(n1Cc1cccc(C)c1)-c1nc(NS(=O)(=O)c3ccccc3)ncc1CC2`, the outcome in test [1] and in test [6] was Active. Also, the EC50 in test [3] turned out to be 3140 nM; in test [4] it was 1880 nM. In test [5], the fold change (FC) worked out at 2.1. Besides, in test [7], the result was inactive.

Take `CCOC(=O)c1c(Br)c2c(n1Cc1cccc(C)c1)-c1[nH]c(=O)c(S(=O)(=O)c3ccccc3)cc1CC2`: the EC50 in test [3] was determined as 750 nM; in test [4] it was 450 nM. In addition, the fold change (FC) in test [5] came to 2.4. Also, the result in test [6] was Active. The outcome in test [7] was inactive.

Consider `Cc1cccc(Cn2c(C(=O)OC(C)C)c(Br)c3c2-c2nc(NS(=O)(=O)c4ccccc4)ncc2CC3)c1`, for which, in test [1], the outcome was Active.

On to `CCOC(=O)c1c(Br)c2c(n1CC1CC1)-c1nc(NS(=O)(=O)c3ccccc3)ncc1CC2`, for which the outcome in test [1] was Active. Besides, the outcome in test [2] was inactive.

On to `CCOC(=O)c1c(Br)c2c(n1Cc1ccc(C)c(C)c1)-c1nc(NS(=O)(=O)c3ccccc3)ncc1CC2`, for which the outcome in test [1] and in test [2] (filed as activator) was Active.
